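Protocol summary: plate cells (96-well), add compound at 5 concentrations, incubate 48 h, interpolate endpoints linearly. TGI: concentration producing complete growth inhibition.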
Legend:
Experiment in all cases: inhibition of tumour cell growth, NCI panel, 48 h
SNB-75 CNS = system: SNB-75 CNS
TK-10 renal = system: TK-10 renal
UACC-62 melanoma = system: UACC-62 melanoma
UACC-257 melanoma = system: UACC-257 melanoma
COLO 205 colon = system: COLO 205 colon
HOP-92 NSCLC = system: HOP-92 NSCLC
MOLT-4 leukemia = system: MOLT-4 leukemia
DLD-1 colon = system: DLD-1 colon
SN12C renal = system: SN12C renal
CCRF-CEM leukemia = system: CCRF-CEM leukemia
OVCAR-3 ovarian = system: OVCAR-3 ovarian
OVCAR-5 ovarian = system: OVCAR-5 ovarian
DMS 273 small cell lung = system: DMS 273 small cell lung
NCI-H460 lung = system: NCI-H460 lung
SF-268 CNS = system: SF-268 CNS
HT29 colon = system: HT29 colon
786-0 renal = system: 786-0 renal
SK-MEL-5 melanoma = system: SK-MEL-5 melanoma
SNB-78 CNS = system: SNB-78 CNS
SR leukemia = system: SR leukemia
OVCAR-4 ovarian = system: OVCAR-4 ovarian
HCT-116 colon = system: HCT-116 colon
OVCAR-8 ovarian = system: OVCAR-8 ovarian
MALME-3M melanoma = system: MALME-3M melanoma
A498 renal = system: A498 renal
HOP-62 NSCLC = system: HOP-62 NSCLC
LXFL 529 NSCLC = system: LXFL 529 NSCLC
RPMI-8226 leukemia = system: RPMI-8226 leukemia
HCT-15 colon = system: HCT-15 colon
KM20L2 colon = system: KM20L2 colon
HOP-18 NSCLC = system: HOP-18 NSCLC
K-562 leukemia = system: K-562 leukemia
M19-MEL melanoma = system: M19-MEL melanoma
SK-MEL-28 melanoma = system: SK-MEL-28 melanoma
HCC-2998 colon = system: HCC-2998 colon
SW-620 colon = system: SW-620 colon
SNB-19 CNS = system: SNB-19 CNS
LOX IMVI melanoma = system: LOX IMVI melanoma
UO-31 renal = system: UO-31 renal
NCI-H23 lung = system: NCI-H23 lung
SF-539 CNS = system: SF-539 CNS
IGROV1 ovarian = system: IGROV1 ovarian
KM12 colon = system: KM12 colon
DMS 114 small cell lung = system: DMS 114 small cell lung
NCI-H226 lung = system: NCI-H226 lung
SK-OV-3 ovarian = system: SK-OV-3 ovarian
CAKI-1 renal = system: CAKI-1 renal
SF-295 CNS = system: SF-295 CNS
U251 CNS = system: U251 CNS
RXF 393 renal = system: RXF 393 renal
ACHN renal = system: ACHN renal
HL-60(TB) leukemia = system: HL-60(TB) leukemia
A549 NSCLC = system: A549 NSCLC
M14 melanoma = system: M14 melanoma

Measured: TGI

COC(=O)C1[C@@H](C(=O)OC)C(=O)O[C@H]1c1cc(OC)c(OC)c(OC)c1 (some centres undefined)
> 100 µM: SNB-75 CNS | TK-10 renal | UACC-62 melanoma | UACC-257 melanoma | COLO 205 colon | HOP-92 NSCLC | MOLT-4 leukemia | DLD-1 colon | SN12C renal | CCRF-CEM leukemia | OVCAR-3 ovarian | OVCAR-5 ovarian | DMS 273 small cell lung | NCI-H460 lung | SF-268 CNS | HT29 colon | 786-0 renal | SK-MEL-5 melanoma | SNB-78 CNS | SR leukemia | OVCAR-4 ovarian | HCT-116 colon | OVCAR-8 ovarian | MALME-3M melanoma | A498 renal | HOP-62 NSCLC | LXFL 529 NSCLC | RPMI-8226 leukemia | HCT-15 colon | KM20L2 colon | HOP-18 NSCLC | K-562 leukemia | M19-MEL melanoma | SK-MEL-28 melanoma | HCC-2998 colon | SW-620 colon | SNB-19 CNS | LOX IMVI melanoma | UO-31 renal | NCI-H23 lung | SF-539 CNS | IGROV1 ovarian | KM12 colon | DMS 114 small cell lung | NCI-H226 lung | SK-OV-3 ovarian | CAKI-1 renal | SF-295 CNS | U251 CNS | RXF 393 renal | ACHN renal | HL-60(TB) leukemia | A549 NSCLC | M14 melanoma

From PubChem BioAssay (NCI)
